Experimental data reported in US20230115611A1, “TREATMENT OF PAIN AND VASOCONSTRICTION” (Aisa Pharma, Inc., priority 2020, published 2023).

Key:
human Nav 1.7 = target: T1, human Nav 1.7 (Homo sapiens, UniProt Q15858); assay: Nav 1.7 sodium channel inhibition, automated patch clamp (QPATCH II), two pulse voltage protocol; format: cell-based; conditions: for Mean % inhibition-closed state: closed state (P1) of Nav 1.7; for Mean % inhibition-closed state / Mean % inhibition-inactivated state: CHO cells, compound at/around Cmax concentration as in Table 4; for Mean % inhibition-inactivated state: inactivated state (P2) of Nav 1.7; for ranking of the compounds in terms of efficacy: Nav 1.7 inhibition at Cmax
T1 construct: expressed in transfected cells
T1 sequence (Q15858 whole entry): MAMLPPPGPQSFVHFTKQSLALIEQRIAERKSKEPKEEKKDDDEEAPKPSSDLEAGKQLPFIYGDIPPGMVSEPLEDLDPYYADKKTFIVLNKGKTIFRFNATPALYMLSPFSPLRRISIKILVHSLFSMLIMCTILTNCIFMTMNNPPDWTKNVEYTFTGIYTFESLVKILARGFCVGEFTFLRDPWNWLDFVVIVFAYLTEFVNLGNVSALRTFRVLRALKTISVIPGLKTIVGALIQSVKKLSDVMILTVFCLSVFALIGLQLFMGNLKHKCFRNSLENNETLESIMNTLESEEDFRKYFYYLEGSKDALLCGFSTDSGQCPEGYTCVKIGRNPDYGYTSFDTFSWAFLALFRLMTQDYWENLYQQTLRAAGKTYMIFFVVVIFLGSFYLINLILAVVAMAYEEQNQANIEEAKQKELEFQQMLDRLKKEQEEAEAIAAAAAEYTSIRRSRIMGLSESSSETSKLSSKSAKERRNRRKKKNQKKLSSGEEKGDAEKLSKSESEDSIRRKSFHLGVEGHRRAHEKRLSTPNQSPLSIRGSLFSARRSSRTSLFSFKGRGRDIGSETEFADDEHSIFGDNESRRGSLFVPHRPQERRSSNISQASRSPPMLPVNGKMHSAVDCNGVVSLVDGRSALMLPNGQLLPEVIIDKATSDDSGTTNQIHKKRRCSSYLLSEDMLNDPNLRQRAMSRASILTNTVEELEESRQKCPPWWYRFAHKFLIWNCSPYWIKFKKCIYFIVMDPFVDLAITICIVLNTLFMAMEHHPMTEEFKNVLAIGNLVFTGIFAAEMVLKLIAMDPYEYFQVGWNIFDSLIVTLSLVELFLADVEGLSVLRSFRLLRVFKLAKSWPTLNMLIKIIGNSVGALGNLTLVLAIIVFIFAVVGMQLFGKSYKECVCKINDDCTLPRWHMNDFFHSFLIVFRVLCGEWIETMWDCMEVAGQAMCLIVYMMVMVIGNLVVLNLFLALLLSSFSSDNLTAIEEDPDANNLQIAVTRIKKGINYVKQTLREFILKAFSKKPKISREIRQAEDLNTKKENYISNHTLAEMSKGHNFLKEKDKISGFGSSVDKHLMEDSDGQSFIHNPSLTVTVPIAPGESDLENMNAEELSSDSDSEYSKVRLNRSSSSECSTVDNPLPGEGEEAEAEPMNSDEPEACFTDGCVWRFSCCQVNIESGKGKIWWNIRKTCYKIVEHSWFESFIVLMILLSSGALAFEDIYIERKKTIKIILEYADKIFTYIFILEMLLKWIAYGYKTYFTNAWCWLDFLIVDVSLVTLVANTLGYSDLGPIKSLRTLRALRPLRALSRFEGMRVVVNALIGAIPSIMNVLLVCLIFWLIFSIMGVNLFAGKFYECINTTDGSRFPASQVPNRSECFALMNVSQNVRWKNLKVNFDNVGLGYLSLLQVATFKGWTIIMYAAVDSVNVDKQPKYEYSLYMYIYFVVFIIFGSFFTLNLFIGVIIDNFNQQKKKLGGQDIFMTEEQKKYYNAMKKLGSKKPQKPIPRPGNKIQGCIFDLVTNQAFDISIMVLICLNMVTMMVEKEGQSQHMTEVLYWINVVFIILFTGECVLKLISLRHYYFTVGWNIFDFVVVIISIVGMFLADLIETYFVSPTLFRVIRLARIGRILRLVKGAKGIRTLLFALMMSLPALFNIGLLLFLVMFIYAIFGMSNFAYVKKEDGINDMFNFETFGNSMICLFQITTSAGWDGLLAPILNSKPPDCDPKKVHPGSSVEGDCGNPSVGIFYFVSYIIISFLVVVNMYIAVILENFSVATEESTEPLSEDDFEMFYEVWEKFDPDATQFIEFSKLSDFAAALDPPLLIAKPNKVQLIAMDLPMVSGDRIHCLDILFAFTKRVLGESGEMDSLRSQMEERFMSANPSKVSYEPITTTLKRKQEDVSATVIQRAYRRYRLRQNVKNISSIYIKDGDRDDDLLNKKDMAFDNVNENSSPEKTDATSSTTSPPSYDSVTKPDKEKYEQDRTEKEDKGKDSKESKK
Description: Chinese Hamster Ovary (CHO) cells stably expressing human Nav 1.7 were cultured according to the manufacturer's standard operating procedure (SOP) and enzymatically lifted into solution following Sophion's standard SOP.
Voltage protocol 1 (VP1): A voltage protocol designed to generate a current voltage relationship and to estimate the half inactivation potential (V1/2) was used. The first voltage protocol was used as quality control and the latter was used later in the experiment (see below).
Voltage protocol 2 (VP2): Two pulse voltage protocol. FIG. 2 depicts a two pulse voltage protocol. The line marked with an asterisk indicates the voltage that was applied to the cell. In the beginning, all channels were in the closed state (V=−120 mV). A depolarization step to V=10 mV (P1) activated all channels and produced the largest possible current. Next, cells were kept at the V1/2 value for 1 s. […] A second stimulation to V=−10 mV activated all channels that were in the closed state (50%). Compound effects were assessed at both P1 and P2. State dependent compounds will show a different degree of inhibition at the two different pulses. This protocol was repeated every 10 s to monitor compound effects on the channel.

[1] = oral dose 10 mg; reference value; cited from earlier work

Compound	Mean % inhibition-closed state (human Nav 1.7)	Mean % inhibition-inactivated state (human Nav 1.7)	activity at the sodium channel subunit Nav 1.7 (human Nav 1.7)	ranking of the compounds in terms of efficacy (human Nav 1.7)	activity at Nav 1.7 compared with bupivacaine (human Nav 1.7; cilnidipine at 20 mg dose)	activity at Nav 1.7 compared with gabapentin (human Nav 1.7; cilnidipine at 20 mg dose)	activity at Nav 1.7 relative to amlodipine (human Nav 1.7; comparable clinical doses (amlodipine 5 mg to cilnidipine 10 mg and amlodipine 10 mg to cilnidipine 20 mg))	higher relative inhibition of Nav 1.7 than amlodipine (human Nav 1.7; plasma concentrations achieved with 10 mg cilnidipine versus clinically comparable 5 mg amlodipine)	Cmax [1]
C[S+](C)[O-] [DMSO]	−2.7%	38.7%	–	–	–	–	–	–	–
CCOC(=O)C1=C(COCCN)NC(C)=C(C(=O)OC)C1c1ccccc1Cl (centres unmarked) [amlodipine]	−7.4%	7.8%	–	–	–	–	–	–	–
CCCCN1CCCCC1C(=O)Nc1c(C)cccc1C (centres unmarked) [bupivacaine]	2.5%	20%	–	–	–	–	–	–	–
COCCOC(=O)C1=C(C)NC(C)=C(C(=O)OC/C=C/c2ccccc2)C1c1cccc([N+](=O)[O-])c1 (centres unmarked) [cilnidipine]	−6.7%	18.5%	clinically meaningful activity	gabapentin<amlodipine<cilnidipine nifedipine	appears to be greater than a sodium channel blocker and local anesthetic, bupivacaine	greater than gabapentin	about 5 ×	9.5%	5.9 ± 1.2 ng/mL
NCC1(CC(=O)O)CCCCC1 [gabapentin]	−5.2%	6.3%	–	gabapentin<amlodipine<cilnidipine nifedipine	–	–	–	–	–
CCN(CC)CC(=O)Nc1c(C)cccc1C [lidocaine]	40.9%	89.0%	–	–	–	–	–	–	–
